According to patent US10829501B2 (BRISTOL-MYERS SQUIBB COMPANY, priority 2016, dated 2020):
Structures can show the parent of a compound that is named as a salt.

molecular target: ROCK2 (Homo sapiens, UniProt O75116); experiment: ROCK2 kinase inhibition assay (LABCHIP 3000 Reader, FITC peptide substrate);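 further: rho kinase reaction read by separating phosphorylated from unphosphorylated peptide on chip, with inhibition of kinase activity computed per concentration across a dose-response series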
Sequence (O75116 whole entry, species assumed): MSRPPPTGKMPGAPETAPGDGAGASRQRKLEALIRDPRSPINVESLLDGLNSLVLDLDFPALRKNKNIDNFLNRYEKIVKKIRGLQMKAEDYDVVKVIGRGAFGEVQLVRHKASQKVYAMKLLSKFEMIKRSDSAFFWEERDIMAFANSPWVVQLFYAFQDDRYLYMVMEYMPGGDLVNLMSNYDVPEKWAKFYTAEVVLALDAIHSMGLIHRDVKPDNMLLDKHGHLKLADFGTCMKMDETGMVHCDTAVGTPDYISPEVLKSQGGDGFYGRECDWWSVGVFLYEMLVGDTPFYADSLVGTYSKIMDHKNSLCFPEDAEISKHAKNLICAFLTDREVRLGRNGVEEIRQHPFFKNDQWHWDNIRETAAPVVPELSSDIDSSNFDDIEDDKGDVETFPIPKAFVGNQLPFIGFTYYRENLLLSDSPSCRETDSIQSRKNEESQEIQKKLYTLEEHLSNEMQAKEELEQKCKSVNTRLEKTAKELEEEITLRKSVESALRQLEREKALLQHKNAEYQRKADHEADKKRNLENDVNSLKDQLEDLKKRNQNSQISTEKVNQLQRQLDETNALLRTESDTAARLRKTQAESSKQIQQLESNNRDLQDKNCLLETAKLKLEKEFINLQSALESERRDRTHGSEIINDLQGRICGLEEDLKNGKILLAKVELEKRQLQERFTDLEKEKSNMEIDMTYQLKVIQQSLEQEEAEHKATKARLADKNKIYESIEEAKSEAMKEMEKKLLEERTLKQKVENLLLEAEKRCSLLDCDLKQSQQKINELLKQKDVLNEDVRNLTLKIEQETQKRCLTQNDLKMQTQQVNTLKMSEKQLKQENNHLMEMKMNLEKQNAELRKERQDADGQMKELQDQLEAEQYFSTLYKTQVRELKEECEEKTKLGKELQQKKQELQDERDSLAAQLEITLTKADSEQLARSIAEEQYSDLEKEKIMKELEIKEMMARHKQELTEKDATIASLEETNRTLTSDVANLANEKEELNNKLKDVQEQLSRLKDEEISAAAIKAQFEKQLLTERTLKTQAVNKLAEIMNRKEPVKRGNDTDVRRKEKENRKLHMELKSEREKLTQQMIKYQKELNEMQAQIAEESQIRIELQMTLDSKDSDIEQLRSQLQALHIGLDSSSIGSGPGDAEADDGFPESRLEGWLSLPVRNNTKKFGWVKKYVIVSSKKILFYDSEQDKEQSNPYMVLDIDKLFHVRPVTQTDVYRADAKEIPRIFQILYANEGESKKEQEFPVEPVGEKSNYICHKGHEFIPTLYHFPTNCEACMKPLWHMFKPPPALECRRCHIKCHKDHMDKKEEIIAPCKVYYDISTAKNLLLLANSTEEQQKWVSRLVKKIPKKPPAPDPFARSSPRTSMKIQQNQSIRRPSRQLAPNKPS

SMILES	IC50
Cc1nnnn1-c1cccc(C(=O)N[C@H]2CC3(C2)C[C@H](Oc2ncccc2C(N)=O)C3)c1 (stereo partly drawn) [Example 142, 2-(((aR)-6-(3-(5-methyl-1H-tetrazol-1-yl)benzamido)spiro[3.3]heptan-2-yl)oxy) nicotinamide, trifluoroacetate]	50 to 250 nM
COc1ccc(CCc2ccccc2C(=O)N[C@H]2CC3(C2)C[C@H](Oc2ncccc2C(N)=O)C3)cc1 (stereo partly drawn) [Example 143, 2-(((aR)-6-(2-(4-methoxyphenethyl)benzamido)spiro[3.3]heptan-2-yl)oxy)nicotinamide, trifluoroacetate]	250 to 2500 nM
NC(=O)c1cccnc1O[C@H]1CC2(C[C@H](NC(=O)c3nc(-c4nc5ccccc5s4)cs3)C2)C1 (stereo partly drawn) [Example 144, 4-(benzo[d]thiazol-2-yl)-N-((aR)-6-((3-carbamoylpyridin-2-yl)oxy)spiro [3.3]heptan-2-yl)thiazole-2-carboxamide, trifluoroacetate]	250 to 2500 nM
NC(=O)c1cccnc1O[C@H]1CC2(C[C@H](NC(=O)c3nc(-c4ccccn4)cs3)C2)C1 (stereo partly drawn) [Example 145, N-((aR)-6-((3-carbamoylpyridin-2-yl)oxy)spiro[3.3]heptan-2-yl)-4-(pyridin-2-yl) thiazole-2-carboxamide, trifluoroacetate]	250 to 2500 nM
Cn1c(-c2nc(C(=O)N[C@H]3CC4(C3)C[C@H](Oc3ncccc3C(N)=O)C4)cs2)nc2ccccc21 (stereo partly drawn) [Example 146, N-((aR)-6-((3-carbamoylpyridin-2-yl)oxy)spiro[3.3]heptan-2-yl)-2-(1-methyl-1H-benzo[d]imidazol-2-yl)thiazole-4-carboxamide, trifluoroacetate]	50 to 250 nM
Cc1noc(-c2cccc(C(=O)N[C@H]3CC4(C3)C[C@H](Oc3ncccc3C(N)=O)C4)c2)n1 (stereo partly drawn) [Example 147, 2-(((aR)-6-(3-(3-methyl-1,2,4-oxadiazol-5-yl)benzamido)spiro[3.3]heptan-2-yl)oxy) nicotinamide, trifluoroacetate]	250 to 2500 nM
NC(=O)c1cccnc1O[C@H]1CC2(C[C@H](NC(=O)c3cc(S(N)(=O)=O)c(F)cc3Cl)C2)C1 (stereo partly drawn) [Example 148, 2-(((aR)-6-(2-chloro-4-fluoro-5-sulfamoylbenzamido)spiro[3.3]heptan-2-yl)oxy) nicotinamide, trifluoroacetate]	50 to 250 nM
NC(=O)c1cccnc1O[C@H]1CC2(C[C@H](NC(=O)c3ccc4c(c3)S(=O)(=O)NC4=O)C2)C1 (stereo partly drawn) [Example 149, N-((aR)-6-((3-carbamoylpyridin-2-yl)oxy)spiro[3.3]heptan-2-yl)-3-oxo-2,3-dihydrobenzo[d] isothiazole-6-carboxamide 1,1-dioxide, trifluoroacetate]	50 to 250 nM
NC(=O)c1cccnc1O[C@H]1CC2(C[C@H](NC(=O)c3ccc(F)c(S(N)(=O)=O)c3)C2)C1 (stereo partly drawn) [Example 150, 2-(((aR)-6-(4-fluoro-3-sulfamoylbenzamido)spiro[3.3]heptan-2-yl)oxy) nicotinamide, trifluoroacetate]	5 to 50 nM
NC(=O)c1cccnc1O[C@H]1CC2(C[C@H](NC(=O)c3ccc4[nH]c(=O)c(=O)[nH]c4c3)C2)C1 (stereo partly drawn) [Example 151, N-((aR)-6-((3-carbamoylpyridin-2-yl)oxy)spiro[3.3]heptan-2-yl)-2,3-dioxo-1,2,3,4-tetrahydroquinoxaline-6-carboxamide, trifluoroacetate]	250 to 2500 nM
NC(=O)c1cccnc1O[C@H]1CC2(C[C@H](NC(=O)c3ccc(Cl)c(S(N)(=O)=O)c3)C2)C1 (stereo partly drawn) [Example 152, 2-(((aR)-6-(4-chloro-3-sulfamoylbenzamido)spiro[3.3]heptan-2-yl)oxy) nicotinamide, trifluoroacetate]	5 to 50 nM
NC(=O)c1cccnc1O[C@H]1CC2(C[C@H](NC(=O)c3cn4cc(Cl)ccc4n3)C2)C1 (stereo partly drawn) [Example 153, N-((aR)-6-((3-carbamoylpyridin-2-yl)oxy)spiro[3.3]heptan-2-yl)-6-chloroimidazo[1,2-a]pyridine-2-carboxamide, trifluoroacetate]	250 to 2500 nM
Cn1c(C(=O)N[C@H]2CC3(C2)C[C@H](Oc2ncccc2C(N)=O)C3)cc2ccc(Cl)cc21 (stereo partly drawn) [Example 154, N-((aR)-6-((3-carbamoylpyridin-2-yl)oxy)spiro[3.3]heptan-2-yl)-6-chloro-1-methyl-1H-indole-2-carboxamide]	50 to 250 nM
N#Cc1ccc(F)c(C(=O)N[C@H]2CC3(C2)C[C@H](Oc2ncccc2C(N)=O)C3)c1 (stereo partly drawn) [Example 155, 2-(((aR)-6-(5-cyano-2-fluorobenzamido)spiro[3.3]heptan-2-yl)oxy)nicotinamide]	250 to 2500 nM
N#Cc1cc(C(=O)N[C@H]2CC3(C2)C[C@H](Oc2ncccc2C(N)=O)C3)ccc1F (stereo partly drawn) [Example 156, 2-(((aR)-6-(3-cyano-4-fluorobenzamido)spiro[3.3]heptan-2-yl)oxy) nicotinamide]	50 to 250 nM
N#Cc1cc(F)cc(C(=O)N[C@H]2CC3(C2)C[C@H](Oc2ncccc2C(N)=O)C3)c1 (stereo partly drawn) [Example 157, 2-(((aR)-6-(3-cyano-5-fluorobenzamido)spiro[3.3]heptan-2-yl)oxy) nicotinamide]	50 to 250 nM

SMILES	IC50
N#Cc1cccc(C(=O)N[C@H]2CC3(C2)C[C@H](Oc2ncccc2C(N)=O)C3)c1 (stereo partly drawn) [Example 158, 2-(((aR)-6-(3-cyanobenzamido)spiro[3.3]heptan-2-yl)oxy) nicotinamide]	50 to 250 nM
NC(=O)c1cccnc1O[C@H]1CC2(C[C@H](NC(=O)c3cc4ccccc4cn3)C2)C1 (stereo partly drawn) [Example 159, N-((aR)-6-((3-carbamoylpyridin-2-yl)oxy)spiro[3.3]heptan-2-yl)isoquinoline-3-carboxamide]	50 to 250 nM
N#Cc1cccc(-c2ccc(C(=O)N[C@H]3CC4(C3)C[C@H](Oc3ncccc3C(N)=O)C4)cc2)c1 (stereo partly drawn) [Example 160, 2-(((aR)-6-(3′-cyano-[1,1′-biphenyl]-4-ylcarboxamido)spiro[3.3]heptan-2-yl)oxy) nicotinamide]	50 to 250 nM
N#Cc1ccc(-c2ccc(C(=O)N[C@H]3CC4(C3)C[C@H](Oc3ncccc3C(N)=O)C4)cn2)cc1 (stereo partly drawn) [Example 161, N-((aR)-6-((3-carbamoylpyridin-2-yl)oxy)spiro[3.3]heptan-2-yl)-6-(4-cyanophenyl) nicotinamide]	5 to 50 nM
NC(=O)c1cccnc1O[C@H]1CC2(C[C@H](NC(=O)c3ccc(-c4cccc(F)c4)cc3)C2)C1 (stereo partly drawn) [Example 162, 2-(((aR)-6-(3′-fluoro-[1,1′-biphenyl]-4-ylcarboxamido)spiro[3.3]heptan-2-yl)oxy)nicotinamide]	5 to 50 nM
CC1(C)Cc2cccc(C(=O)N[C@H]3CC4(C3)C[C@H](Oc3ncccc3C(N)=O)C4)c2O1 (stereo partly drawn) [Example 163, 2-(((aR)-6-(2,2-dimethyl-2,3-dihydrobenzofuran-7-carboxamido)spiro[3.3]heptan-2-yl)oxy) nicotinamide]	250 to 2500 nM
Cc1nc(-c2ccccc2)oc1C(=O)N[C@H]1CC2(C1)C[C@H](Oc1ncccc1C(N)=O)C2 (stereo partly drawn) [Example 164, N-((aR)-6-((3-carbamoylpyridin-2-yl)oxy)spiro[3.3]heptan-2-yl)-4-methyl-2-phenyloxazole-5-carboxamide]	250 to 2500 nM
NC(=O)c1cccnc1O[C@H]1CC2(C[C@H](NC(=O)c3ncoc3-c3ccccc3)C2)C1 (stereo partly drawn) [Example 165, N-((aR)-6-((3-carbamoylpyridin-2-yl)oxy)spiro[3.3]heptan-2-yl)-5-phenyloxazole-4-carboxamide]	50 to 250 nM
CC(C)(O)COc1ccn2c(C(=O)NC3CC4(C3)CC(Oc3ncccc3C(N)=O)C4)cnc2c1 (centres unmarked) [Example 166, N-((αR)-6-((3-carbamoylpyridin-2-yl)oxy)spiro[3.3]heptan-2-yl)-7-(2-hydroxy-2-methylpropoxy) imidazo[1,2-a]pyridine-3-carboxamide]	5 to 50 nM
COc1ccc(C(N)=O)c(O[C@H]2CC3(C[C@H](NC(=O)c4cnn5c(C6CC6)c(OCC(C)(C)O)ccc45)C3)C2)n1 (stereo partly drawn) [Example 167, N-((aR)-6-((3-carbamoyl-6-methoxypyridin-2-yl)oxy)spiro[3.3]heptan-2-yl)-7-cyclopropyl-6-(2-hydroxy-2-methylpropoxy)pyrazolo [1,5-a]pyridine-3-carboxamide]	< 5 nM
COc1ccc(C(N)=O)c(O[C@H]2CC3(C[C@H](NC(=O)c4cnn5c(CCC(F)(F)F)c(OCC(C)(C)O)ccc45)C3)C2)n1 (stereo partly drawn) [Example 168, N-((aR)-6-((3-carbamoyl-6-methoxypyridin-2-yl)oxy)spiro[3.3]heptan-2-yl)-6-(2-hydroxy-2-methylpropoxy)-7-(3,3,3-trifluoropropyl)pyrazolo [1,5-a]pyridine-3-carboxamide]	< 5 nM
COc1ccc(C(N)=O)c(O[C@H]2CC3(C[C@H](NC(=O)c4nn(CC(C)(C)O)c5ccc(F)cc45)C3)C2)n1 (stereo partly drawn) [Example 169, N-((aR)-6-((3-carbamoyl-6-methoxypyridin-2-yl)oxy)spiro[3.3]heptan-2-yl)-5-fluoro-1-(2-hydroxy-2-methylpropyl)-1H-indazole-3-carboxamide]	5 to 50 nM
NC(=O)c1cccnc1O[C@H]1CC2(C[C@H](NC(=O)c3cnc4c(C5CC5)cccn34)C2)C1 (stereo partly drawn) [Example 170, N-((aR)-6-((3-carbamoylpyridin-2-yl)oxy)spiro[3.3]heptan-2-yl)-8-cyclopropylimidazo[1,2-a]pyridine-3-carboxamide, Trifluoroacetate]	50 to 250 nM
NC(=O)c1cccnc1O[C@H]1CC2(C[C@H](NC(=O)c3nn(C(F)F)c4cc(OCc5ccccc5)ccc34)C2)C1 (stereo partly drawn) [Example 171, 6-(benzyloxy)-N-((aR)-6-((3-carbamoylpyridin-2-yl)oxy)spiro[3.3]heptan-2-yl)-1-(difluoromethyl)-1H-indazole-3-carboxamide, trifluoroacetate]	5 to 50 nM
NC(=O)c1cccnc1O[C@H]1CC2(C[C@H](NC(=O)c3nn(C(F)F)c4cc(Br)ccc34)C2)C1 (stereo partly drawn) [Example 172, 6-bromo-N-((aR)-6-((3-carbamoylpyridin-2-yl)oxy)spiro[3.3]heptan-2-yl)-1-(difluoromethyl)-1H-indazole-3-carboxamide, trifluoroacetate]	5 to 50 nM
Cn1nc(C(=O)N[C@H]2CC3(C2)C[C@H](Oc2ncccc2C(N)=O)C3)c2ccc(F)cc21 (stereo partly drawn) [Example 173, N-((aR)-6-((3-carbamoylpyridin-2-yl)oxy)spiro[3.3]heptan-2-yl)-6-fluoro-1-methyl-1H-indazole-3-carboxamide, trifluoroacetate]	5 to 50 nM
